The values that follow are results of earlier work, collected in patent US20130018223A1, “METHOD FOR TIMING A COLONOSCOPY” (priority 2011, published 2013).

Structures are written as SMILES.

Turning to `[O]=[Mg]` [Magnesium oxide], the solubility in alcohol result was “not soluble”.
